Laboratory results published in PubChem BioAssay AID248 (DTP/NCI, 2004).
Where “and” joins values, the source holds several entries; their conditions need not be identical. Equal values may be shown once. Inconclusive results and toxic doses are left out. Cut-off read from the data, not from the text of the source: active = T/C of 150% or more; inactive = T/C below 125%.

Tested on: L1210 leukemia ip in BDF1 mice, survival T/C
Experiment: NCI In Vivo Anticancer Drug Screen. Data for tumor model L1210 Leukemia (intraperitoneal) in B6D2F1 (BDF1) mice
Conditions: endpoint: mean survival time, higher = longer survival
Summary of the method: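 Tumor was transplanted into mice, which were then dosed with test compound or vehicle alone. Survival was recorded for each group, and the treated figure was expressed relative to the control figure.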

[1] = dose: 100.0 mg/kg/injection, schedule: Q01DX001 (ip), vehicle: Klucel (hydroxypropylcellulose) (HPC)
[2] = dose: 200.0 mg/kg/injection, schedule: Q01DX001 (ip), vehicle: Klucel (hydroxypropylcellulose) (HPC)
[3] = dose: 100.0 mg/kg/injection, schedule: Q04DX003 (ip), vehicle: Klucel (hydroxypropylcellulose) (HPC)
[4] = dose: 200.0 mg/kg/injection, schedule: Q01DX009 (ip), vehicle: Klucel (hydroxypropylcellulose) (HPC)
[5] = dose: 200.0 mg/kg/injection, schedule: Q04DX003 (ip), vehicle: Klucel (hydroxypropylcellulose) (HPC)
[6] = dose: 400.0 mg/kg/injection, schedule: Q01DX001 (ip), vehicle: Klucel (hydroxypropylcellulose) (HPC)
[7] = dose: 100.0 mg/kg/injection, schedule: Q04DX002 (ip), vehicle: Klucel (hydroxypropylcellulose) (HPC)
[8] = dose: 100.0 mg/kg/injection, schedule: Q04DX003 (ip), vehicle: saline
[9] = dose: 200.0 mg/kg/injection, schedule: Q04DX002 (ip), vehicle: Klucel (hydroxypropylcellulose) (HPC)

Measured: T/C

CCOC(=O)c1cc2ccccc2[nH]1
inactive: dose: 50.0 mg/kg/injection, schedule: Q01DX001 (ip), vehicle: Klucel (hydroxypropylcellulose) (HPC) 93 % of control | [1] 98 % of control | dose: 100.0 mg/kg/injection, schedule: Q04DX002 (ip), vehicle: saline with Tween-80 97 % of control | [2] 93 % of control | dose: 200.0 mg/kg/injection, schedule: Q04DX002 (ip), vehicle: saline with Tween-80 87 % of control | dose: 400.0 mg/kg/injection, schedule: Q04DX002 (ip), vehicle: saline with Tween-80 97 % of control

CC(=O)CC(=O)Oc1ccccc1OC(C)=O
inactive: dose: 50.0 mg/kg/injection, schedule: Q01DX009 (ip), vehicle: Klucel (hydroxypropylcellulose) (HPC) 103 % of control | dose: 100.0 mg/kg/injection, schedule: Q01DX009 (ip), vehicle: Klucel (hydroxypropylcellulose) (HPC) 101 % of control | [3] 100 % of control | [4] 114 % of control | [5] 102 % of control

CCN(CC)CCSC(=S)N1c2ccccc2Sc2ccccc21
inactive: dose: 17.5 mg/kg/injection, schedule: Q01DX009 (ip), vehicle: saline 90 % of control | dose: 17.5 mg/kg/injection, schedule: Q04DX003 (ip), vehicle: Klucel (hydroxypropylcellulose) (HPC) 102 % of control | dose: 35.0 mg/kg/injection, schedule: Q01DX009 (ip), vehicle: saline 96 % of control | dose: 35.0 mg/kg/injection, schedule: Q04DX003 (ip), vehicle: Klucel (hydroxypropylcellulose) (HPC) 93 % of control | dose: 70.0 mg/kg/injection, schedule: Q01DX009 (ip), vehicle: saline 87 % of control | dose: 70.0 mg/kg/injection, schedule: Q04DX003 (ip), vehicle: Klucel (hydroxypropylcellulose) (HPC) 96 % of control | dose: 140.0 mg/kg/injection, schedule: Q01DX009 (ip), vehicle: saline 91 % of control | dose: 140.0 mg/kg/injection, schedule: Q04DX003 (ip), vehicle: Klucel (hydroxypropylcellulose) (HPC) 98 % of control | dose: 280.0 mg/kg/injection, schedule: Q04DX003 (ip), vehicle: Klucel (hydroxypropylcellulose) (HPC) 95 % of control

Nc1nc(-c2ccccc2)c(CCCO)c(=O)[nH]1
inactive: [1] 102 % of control | [2] 102 % of control | [6] 98 % of control

Cc1ccccc1/[N+]([O-])=C/c1ccccc1
inactive: [1] 104 % of control | [3] 103 % of control | [2] 104 % of control | [4] 93 % of control | [5] 102 % of control | [6] 101 % of control | dose: 400.0 mg/kg/injection, schedule: Q01DX009 (ip), vehicle: Klucel (hydroxypropylcellulose) (HPC) 104 % of control | dose: 400.0 mg/kg/injection, schedule: Q04DX003 (ip), vehicle: Klucel (hydroxypropylcellulose) (HPC) 102 % of control

CN(C)C=Nc1ccc(C(=O)OCCN(C)C)cc1
inactive: dose: 50.0 mg/kg/injection, schedule: Q01DX009 (ip), vehicle: saline with Tween-80 115 % of control | dose: 100.0 mg/kg/injection, schedule: Q01DX009 (ip), vehicle: saline with Tween-80 97 % of control | dose: 200.0 mg/kg/injection, schedule: Q01DX009 (ip), vehicle: saline with Tween-80 106 % of control

CC(=O)Nc1cccc(N)c1
inactive: dose: 25.0 mg/kg/injection, schedule: Q01DX009 (ip), vehicle: saline 95 % of control | dose: 25.0 mg/kg/injection, schedule: Q04DX003 (ip), vehicle: saline 103 % of control | dose: 50.0 mg/kg/injection, schedule: Q01DX009 (ip), vehicle: saline 108 % of control | dose: 50.0 mg/kg/injection, schedule: Q04DX003 (ip), vehicle: saline 97 % of control | dose: 100.0 mg/kg/injection, schedule: Q01DX009 (ip), vehicle: saline 101 % of control | [7] 86 % of control | [8] 94 % of control | [9] 107 % of control

Clc1ncnc2c1nnn2/N=C/c1ccccc1
inactive: dose: 15.0 mg/kg/injection, schedule: Q01DX Z (ip), vehicle: carboxymethylcellulose (CMC) 95 % of control | dose: 20.0 mg/kg/injection, schedule: Q01DX Z (ip), vehicle: carboxymethylcellulose (CMC) 91 % of control

O=C(Nc1ccc(Cl)c(Cl)c1)SCCSC(=O)Nc1ccc(Cl)c(Cl)c1
inactive: dose: 100.0 mg/kg/injection, schedule: Q01DX001 (ip), vehicle: saline with Tween-80 107 % of control | dose: 200.0 mg/kg/injection, schedule: Q01DX001 (ip), vehicle: saline with Tween-80 92 % of control | dose: 400.0 mg/kg/injection, schedule: Q01DX001 (ip), vehicle: saline with Tween-80 93 % of control

C=NN=C(NN=C)NN=C
inactive: dose: 15.0 mg/kg/injection, schedule: Q01DX Z (ip), vehicle: methylcellulose (MC) 105 % of control | dose: 30.0 mg/kg/injection, schedule: Q01DX Z (ip), vehicle: methylcellulose (MC) 114 % of control | dose: 60.0 mg/kg/injection, schedule: Q01DX Z (ip), vehicle: methylcellulose (MC) 97 % of control | dose: 120.0 mg/kg/injection, schedule: Q01DX Z (ip), vehicle: methylcellulose (MC) 104 % of control | dose: 120.0 mg/kg/injection, schedule: Q01DX Z (oral), vehicle: methylcellulose (MC) 104 % of control | dose: 480.0 mg/kg/injection, schedule: Q01DX Z (oral), vehicle: methylcellulose (MC) 93 % of control

Nc1cc(Nc2cccc(Br)c2)nc(N)n1
inactive: [7] 97 % of control | [9] 108 % of control

O=C(CCCCC(=O)N=C(c1ccccc1)c1ccccc1)N=C(c1ccccc1)c1ccccc1
inactive: dose: 222.0 mg/kg/injection, schedule: Q01DX Z (ip), vehicle: methylcellulose (MC) 93 % of control | dose: 333.0 mg/kg/injection, schedule: Q01DX Z (ip), vehicle: methylcellulose (MC) 98 % of control | dose: 500.0 mg/kg/injection, schedule: Q01DX Z (ip), vehicle: methylcellulose (MC) 97 % of control

CCCCC(=O)N1CC(C)OC(C)C1 (stereo not drawn)
inactive: dose: 100.0 mg/kg/injection, schedule: Q01DX001 (ip), vehicle: carboxymethylcellulose (CMC) 97 % of control | dose: 100.0 mg/kg/injection, schedule: Q01DX009 (ip), vehicle: carboxymethylcellulose (CMC) 96 % of control | dose: 100.0 mg/kg/injection, schedule: Q04DX002 (ip), vehicle: carboxymethylcellulose (CMC) 102 % of control | dose: 100.0 mg/kg/injection, schedule: Q04DX003 (ip), vehicle: carboxymethylcellulose (CMC) 102 % of control | dose: 200.0 mg/kg/injection, schedule: Q01DX001 (ip), vehicle: carboxymethylcellulose (CMC) 102 % of control | dose: 200.0 mg/kg/injection, schedule: Q01DX009 (ip), vehicle: carboxymethylcellulose (CMC) 94 % of control and 104 % of control | dose: 200.0 mg/kg/injection, schedule: Q04DX002 (ip), vehicle: carboxymethylcellulose (CMC) 98 % of control | dose: 200.0 mg/kg/injection, schedule: Q04DX003 (ip), vehicle: carboxymethylcellulose (CMC) 102 % of control | dose: 400.0 mg/kg/injection, schedule: Q01DX001 (ip), vehicle: carboxymethylcellulose (CMC) 106 % of control | dose: 400.0 mg/kg/injection, schedule: Q01DX009 (ip), vehicle: carboxymethylcellulose (CMC) 94 % of control and 98 % of control | dose: 400.0 mg/kg/injection, schedule: Q04DX002 (ip), vehicle: carboxymethylcellulose (CMC) 105 % of control | dose: 400.0 mg/kg/injection, schedule: Q04DX003 (ip), vehicle: carboxymethylcellulose (CMC) 96 % of control

O=C(O)CC(C(=O)O)c1ccccc1O (stereo not drawn)
inactive: dose: 25.0 mg/kg/injection, schedule: Q04DX003 (ip), vehicle: Klucel (hydroxypropylcellulose) (HPC) 95 % of control | dose: 50.0 mg/kg/injection, schedule: Q01DX001 (ip), vehicle: saline 100 % of control | dose: 50.0 mg/kg/injection, schedule: Q04DX003 (ip), vehicle: Klucel (hydroxypropylcellulose) (HPC) 93 % of control | dose: 100.0 mg/kg/injection, schedule: Q01DX001 (ip), vehicle: saline 96 % of control | dose: 200.0 mg/kg/injection, schedule: Q01DX001 (ip), vehicle: saline 90 % of control

CCC(C)C(CC(=O)O)C(=O)O (stereo not drawn)
inactive: [8] 97 % of control | dose: 200.0 mg/kg/injection, schedule: Q04DX003 (ip), vehicle: saline 94 % of control | dose: 400.0 mg/kg/injection, schedule: Q04DX003 (ip), vehicle: saline 92 % of control
